From ChEMBL document CHEMBL1156672, “Selectivity criterion for pyrazolo[3,4-b]pyrid[az]ine derivatives as GSK-3 inhibitors: CoMFA and molecular docking studies” (Eur J Med Chem, 2008)

Biological target: Cyclin-dependent kinase 2 (Homo sapiens, UniProt P24941)

O=C(NC1=NNC2=CC=CC21)C1CC1 (stereo unspecified)
IC50: 5 nM
